From ChEMBL document CHEMBL1201862, “PubChem BioAssay data set” (2004)
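The compound was tested at five concentrations on cells cultured in 96-well plates, with a 48-hour exposure period. GI50 = concentration required for 50% inhibition of growth.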 The source made the active and inactive calls. Cut-off read from the data, not from the text of the source: active = GI50 up to about 1.1 µM and inactive = higher.

Key:
Experiment in all cases: DTP human tumour cell line panel, 48 h
NCI/ADR-RES = tested on: NCI/ADR-RES
MOLT-4 = tested on: MOLT-4
NCI-H226 = tested on: NCI-H226
IGROV-1 = tested on: IGROV-1
SNB-19 = tested on: SNB-19
UO-31 = tested on: UO-31
SK-MEL-5 = tested on: SK-MEL-5
CAKI-1 = tested on: CAKI-1
A498 = tested on: A498
K562 = tested on: K562
KM12 = tested on: KM12
SF-295 = tested on: SF-295
NCI-H23 = tested on: NCI-H23
UACC-62 = tested on: UACC-62
EKVX = tested on: EKVX
UACC-257 = tested on: UACC-257
SNB-75 = tested on: SNB-75
MDA-MB-231 = tested on: MDA-MB-231
HCT-15 = tested on: HCT-15
OVCAR-8 = tested on: OVCAR-8
BT-549 = tested on: BT-549
ACHN = tested on: ACHN
SK-OV-3 = tested on: SK-OV-3
LOX IMVI = tested on: LOX IMVI
A549 = tested on: A549
786-0 = tested on: 786-0
NCI-H522 = tested on: NCI-H522
HOP-92 = tested on: HOP-92
MCF7 = tested on: MCF7
PC-3 = tested on: PC-3
MDA-MB-435 = tested on: MDA-MB-435
HL-60 = tested on: HL-60
Hs-578T = tested on: Hs-578T
SR = tested on: SR
HOP-62 = tested on: HOP-62
SK-MEL-28 = tested on: SK-MEL-28
DU-145 = tested on: DU-145
RPMI-8226 = tested on: RPMI-8226
HCT-116 = tested on: HCT-116
Malme-3M = tested on: Malme-3M
NCI-H460 = tested on: NCI-H460
OVCAR-4 = tested on: OVCAR-4
SK-MEL-2 = tested on: SK-MEL-2
SF-268 = tested on: SF-268
MDA-N = tested on: MDA-N
HCC 2998 = tested on: HCC 2998
SW-620 = tested on: SW-620
TK-10 = tested on: TK-10
RXF 393 = tested on: RXF 393
CCRF-CEM = tested on: CCRF-CEM
SF-539 = tested on: SF-539
M14 = tested on: M14
OVCAR-5 = tested on: OVCAR-5
OVCAR-3 = tested on: OVCAR-3
HT-29 = tested on: HT-29
U-251 = tested on: U-251
COLO 205 = tested on: COLO 205
SN12C = tested on: SN12C

CC(=O)O[C@@H]1C2=C(C3=C([O-])C4=CC=CC(=O)C4C(=O)C3=C2[N+]#N)[C@H](OC(C)=O)[C@@H](OC(C)=O)[C@]1(C)O (stereo partly specified)
GI50 (NCI/ADR-RES): 0.128 µM (active)
GI50 (MOLT-4): 0.0959 µM (active)
GI50 (NCI-H226): 0.537 µM (active)
GI50 (IGROV-1): 0.347 µM (active)
GI50 (SNB-19): 0.951 µM (active)
GI50 (UO-31): 0.561 µM (active)
GI50 (SK-MEL-5): 0.506 µM (active)
GI50 (CAKI-1): 0.407 µM (active)
GI50 (A498): 0.923 µM (active)
GI50 (K562): 0.151 µM (active)
GI50 (KM12): 0.333 µM (active)
GI50 (SF-295): 0.385 µM (active)
GI50 (NCI-H23): 0.746 µM (active)
GI50 (UACC-62): 0.661 µM (active)
GI50 (EKVX): 0.605 µM (active)
GI50 (UACC-257): 0.719 µM (active)
GI50 (SNB-75): 0.186 µM (active)
GI50 (MDA-MB-231): 0.286 µM (active)
GI50 (HCT-15): 0.119 µM
GI50 (OVCAR-8): 0.184 µM (active)
GI50 (BT-549): 0.631 µM (active)
GI50 (ACHN): 0.141 µM (active)
GI50 (SK-OV-3): 0.731 µM (active)
GI50 (LOX IMVI): 0.124 µM (active)
GI50 (A549): 0.292 µM (active)
GI50 (786-0): 0.306 µM (active)
GI50 (NCI-H522): 0.173 µM (active)
GI50 (HOP-92): 0.438 µM (active)
GI50 (MCF7): 0.392 µM (active)
GI50 (PC-3): 0.417 µM (active)
GI50 (MDA-MB-435): 0.644 µM (active)
GI50 (HL-60): 0.105 µM (active)
GI50 (Hs-578T): 0.173 µM (active)
GI50 (SR): 0.101 µM (active)
GI50 (HOP-62): 0.711 µM (active)
GI50 (SK-MEL-28): 0.743 µM (active)
GI50 (DU-145): 0.383 µM (active)
GI50 (RPMI-8226): 0.115 µM (active)
GI50 (HCT-116): 0.1 µM (active)
GI50 (Malme-3M): 0.332 µM (active)
GI50 (NCI-H460): 0.693 µM (active)
GI50 (OVCAR-4): 0.731 µM (active)
GI50 (SK-MEL-2): 0.832 µM (active)
GI50 (SF-268): 0.302 µM (active)
GI50 (MDA-N): 0.361 µM (active)
GI50 (HCC 2998): 0.262 µM (active)
GI50 (SW-620): 0.284 µM (active)
GI50 (TK-10): 0.484 µM (active)
GI50 (RXF 393): 0.565 µM (active)
GI50 (CCRF-CEM): 0.0323 µM (active)
GI50 (SF-539): 0.508 µM (active)
GI50 (M14): 0.177 µM (active)
GI50 (OVCAR-5): 0.353 µM (active)
GI50 (OVCAR-3): 0.502 µM (active)

O=C(O)c1cc2ccccc2oc1=O [COUMARIN-3-CARBOXYLIC ACID]
GI50 (NCI/ADR-RES): > 100 µM (inactive)
GI50 (MOLT-4): > 100 µM (inactive)
GI50 (NCI-H226): > 100 µM (inactive)
GI50 (IGROV-1): > 100 µM (inactive)
GI50 (SNB-19): > 100 µM (inactive)
GI50 (UO-31): > 100 µM (inactive)
GI50 (SK-MEL-5): > 100 µM (inactive)
GI50 (CAKI-1): > 100 µM (inactive)
GI50 (A498): > 100 µM (inactive)
GI50 (HT-29): > 100 µM (inactive)
GI50 (K562): > 100 µM (inactive)
GI50 (KM12): > 100 µM (inactive)
GI50 (SF-295): > 100 µM (inactive)
GI50 (NCI-H23): > 100 µM (inactive)
GI50 (UACC-62): > 100 µM (inactive)
GI50 (EKVX): > 100 µM (inactive)
GI50 (UACC-257): > 100 µM (inactive)
GI50 (SNB-75): > 100 µM (inactive)
GI50 (U-251): > 100 µM (inactive)
GI50 (COLO 205): > 100 µM (inactive)
GI50 (MDA-MB-231): > 100 µM (inactive)
GI50 (HCT-15): > 100 µM
GI50 (OVCAR-8): > 100 µM (inactive)
GI50 (BT-549): > 100 µM (inactive)
GI50 (ACHN): > 100 µM (inactive)
GI50 (LOX IMVI): > 100 µM (inactive)
GI50 (A549): > 100 µM (inactive)
GI50 (786-0): > 100 µM (inactive)
GI50 (NCI-H522): > 100 µM (inactive)
GI50 (HOP-92): > 100 µM (inactive)
GI50 (MCF7): > 100 µM (inactive)
GI50 (PC-3): > 100 µM (inactive)
GI50 (MDA-MB-435): > 100 µM (inactive)
GI50 (HL-60): > 100 µM (inactive)
GI50 (Hs-578T): > 100 µM (inactive)
GI50 (SR): > 100 µM (inactive)
GI50 (HOP-62): > 100 µM (inactive)
GI50 (SK-MEL-28): > 100 µM (inactive)
GI50 (DU-145): > 100 µM (inactive)
GI50 (RPMI-8226): > 100 µM (inactive)
GI50 (HCT-116): > 100 µM (inactive)
GI50 (Malme-3M): > 100 µM (inactive)
GI50 (NCI-H460): > 100 µM (inactive)
GI50 (OVCAR-4): > 100 µM (inactive)
GI50 (SK-MEL-2): > 100 µM (inactive)
GI50 (SN12C): > 100 µM (inactive)
GI50 (SF-268): > 100 µM (inactive)
GI50 (MDA-N): > 100 µM (inactive)
GI50 (HCC 2998): > 100 µM (inactive)
GI50 (SW-620): > 100 µM (inactive)
GI50 (TK-10): > 100 µM (inactive)
GI50 (RXF 393): > 100 µM (inactive)
GI50 (CCRF-CEM): > 100 µM (inactive)
GI50 (SF-539): > 100 µM (inactive)
GI50 (M14): > 100 µM (inactive)
GI50 (OVCAR-5): > 100 µM (inactive)
GI50 (OVCAR-3): > 100 µM (inactive)
